Patent US20050208124A1, “Drugs containing riboflavin-type compounds” (priority 2003, published 2005)
Read-outs that look alike come from different tables or passages of the source.

Key:
[1] = test system: human vascular endothelial cells (HUEC); assay: Active oxygen production in endothelial cells under high glucose load; type: cell-based; details: 30 mM glucose load, control 91.2, glucose alone 140.5
Experimental: Next, glucose was added to a glucose concentration of 30 mM on each plate, and the cells were CO2 incubated for 1 hour at 37° C. After completion of culture the cells were collected and intracellular active oxygen was measured by FACS Calibur (Flow Cytometry System; Becton Dickinson Japan) using […] (intracellular active oxygen measurement kit; […] Pharma).

LPS-induced shock mice = details: male ICR mice, LPS 12 mg/kg i.v., 20 mg/kg i.v. 6 h after LPS
[2] = test system: TNF-α-stimulated mouse peritoneal macrophage; assay: IL-6 production from TNF-α-stimulated mouse peritoneal macrophage; type: cell-based; details: 10 ng/mL TNF-α, 24 h
HWEC cells = assay: IL-8 production in endothelial cells under high glucose load; type: cell-based, human; details: 30 mM glucose load, 2 h, glucose alone 1196 pg/mL
SEB-induced shock mice = details: mouse, in vivo
AAPH-intoxication mice = assay: AAPH-intoxication mouse model: survival; details: male ICR mice, AAPH 125 mg/kg i.p., 7 days
TNF-α-induced shock mice = assay: TNF-α-induced shock mouse model: survival; details: human TNF-α + D-galactosamine i.p., 20 mg/kg i.v. immediately after, 7 days

Compound: Cc1cc2nc3c(=O)[nH]c(=O)nc-3n(C[C@H](O)[C@H](O)[C@H](O)COP(=O)([O-])O)c2cc1C.[Na+] [5′-FMN-Na, riboflavin-5′-phosphate sodium ester]
- fluorescent strength (mean fluorescence), intracellular active oxygen ([1]; 0.1 μg/mL): 114.2
- fluorescent strength (mean fluorescence), intracellular active oxygen ([1]; 0.39 μg/mL): 125.0
- fluorescent strength (mean fluorescence), intracellular active oxygen ([1]; 1.56 μg/mL): 111.9
- fluorescent strength (mean fluorescence), intracellular active oxygen ([1]; 6.25 μg/mL): 89.5
- plasma GM-CSF concentration (LPS-induced shock mice; 21 h after LPS (second peak)): tended to depress
- plasma MIP-2 concentration (LPS-induced shock mice; after 9 h, maintained after 21 h): had declined
- plasma IL-1β concentration (LPS-induced shock mice; between 9 and 12 h after LPS, vs control): decreased rapidly
- plasma NO level (total NO2 and NO3) (LPS-induced shock mice; between 9 and 18 h): no suppression effect
- plasma INF-γ concentration (LPS-induced shock mice; between 9 and 18 h after LPS, vs control): declined rapidly
- plasma NO level (total NO2 and NO3) (LPS-induced shock mice; between 21 and 24 h): had a suppression effect
- plasma IL-6 concentration (LPS-induced shock mice; maintained after 21 h, vs control): rapid decline
- plasma MCP-1 concentration (LPS-induced shock mice; maintained until 21 h after LPS): depressed
- plasma IL-10 concentration (LPS-induced shock mice; second peak (21 h after LPS)): depressed
- plasma TNF-α concentration (LPS-induced shock mice; second peak (21 h after LPS)): depressed
- TNF-α-induced IL-6 production ([2]; 1.56 μg/mL 5′-FMN-Na): suppressed
- TNF-α-induced IL-6 production ([2]; 25 μg/mL 5′-FMN-Na): suppressed
- IL-8 concentration in the medium (HWEC cells; 6.25 μg/mL): 297 pg/mL
- IL-8 concentration in the medium (HWEC cells; 25 μg/mL): 168 pg/mL
- plasma IL-6 concentration (SEB-induced shock mice): suppression effect
- plasma INF-γ concentration (SEB-induced shock mice): suppression effect
- plasma MIP-2 concentration (SEB-induced shock mice): suppression effect
- Survival number (AAPH-intoxication mice; 20 mg/kg i.p. (−24 h, 0)): 7/10
- Survival rate (%) (AAPH-intoxication mice; 20 mg/kg i.p. (−24 h, 0), P < 0.05 vs. Saline): 70%
- Survival number (AAPH-intoxication mice; 20 mg/kg i.v. (−24 h, 0, +1 h)): 6/10
- Survival rate (%) (AAPH-intoxication mice; 20 mg/kg i.v. (−24 h, 0, +1 h)): 60%
- Survival number (TNF-α-induced shock mice; female ICR mice): 7/10
- Survival rate (%) (TNF-α-induced shock mice; female ICR mice): 70%
- Survival number (TNF-α-induced shock mice; male BALB/c mice): 6/10
- Survival rate (%) (TNF-α-induced shock mice; male BALB/c mice, P < 0.05 vs. Saline, 20 mg/kg): 60%
